Tests used:
human cancer cells = conditions: compared with TAXOL; cited from earlier work

Structure (SMILES) | melting point | cytotoxic activity (human cancer cells)
COC(=O)C1C(c2ccccc2)[C@]2(c3ccc(OC)cc3)Oc3cc(OC)cc(OC)c3[C@@]1(O)C2=O (some centres unmarked) | 83 to 85 °C | –
COC(=O)[C@H]1[C@@H](O)[C@@]2(O)c3c(OC)cc(O[C@@H]4O[C@@H]([C@H](O)CO)CO[C@H]4OC)cc3O[C@@]2(c2ccc(OC)cc2)[C@@H]1c1ccccc1 [silvestrol B, silvestrol] | – | comparable to the anticancer drug TAXOL®
